Measured values taken from ChEMBL document CHEMBL3856182, “How much successful are the medicinal chemists in modulation of SIRT1: A critical review” (Eur J Med Chem, 2016).
pEC50, pIC50: −log10 of the molar value. Values after ≈ are worked out from the molar mass of the structure shown. Each block holds one molecule with its values, some of them ahead of it.

Key:
[1] = target: T1, NAD-dependent protein deacetylase sirtuin-1 (Homo sapiens, UniProt Q96EB6); assay: Inhibition of recombinant SIRT1 (unknown origin) assessed as deacetylation activity using acetylated p53 as substrate measured after 2 hrs by Fluor de Lys assay
T1 sequence (Q96EB6 whole entry): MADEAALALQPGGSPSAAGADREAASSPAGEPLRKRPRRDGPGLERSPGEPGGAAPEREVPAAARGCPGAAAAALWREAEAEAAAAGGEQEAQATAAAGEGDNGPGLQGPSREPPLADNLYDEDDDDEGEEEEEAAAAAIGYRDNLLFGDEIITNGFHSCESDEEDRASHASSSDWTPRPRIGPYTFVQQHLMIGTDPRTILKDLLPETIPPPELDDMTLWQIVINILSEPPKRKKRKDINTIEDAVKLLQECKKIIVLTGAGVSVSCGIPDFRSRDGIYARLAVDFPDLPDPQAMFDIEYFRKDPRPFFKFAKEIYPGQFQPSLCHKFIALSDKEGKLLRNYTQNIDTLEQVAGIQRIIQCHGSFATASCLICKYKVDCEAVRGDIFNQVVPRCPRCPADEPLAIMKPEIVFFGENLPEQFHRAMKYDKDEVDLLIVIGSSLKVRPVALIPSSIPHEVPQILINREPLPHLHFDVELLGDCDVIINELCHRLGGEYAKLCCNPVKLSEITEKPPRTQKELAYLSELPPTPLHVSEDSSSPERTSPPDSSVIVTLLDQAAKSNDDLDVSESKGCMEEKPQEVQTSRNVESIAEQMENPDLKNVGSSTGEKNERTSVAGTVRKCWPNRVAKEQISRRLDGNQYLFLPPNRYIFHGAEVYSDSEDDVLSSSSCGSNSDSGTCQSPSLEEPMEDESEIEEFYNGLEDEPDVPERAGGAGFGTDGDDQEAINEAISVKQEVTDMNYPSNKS

[2] = target: T1, NAD-dependent protein deacetylase sirtuin-1; assay: Inhibition of recombinant human GST-tagged SIRT1 overexpressed in Escherichia coli DH5alpha assessed as deacetylation activity using [3H]-MPSDKTIGG as substrate measured after overnight incubation by liquid scintillation counting method
[3] = target: T2, NAD-dependent protein deacetylase sirtuin-2 (Homo sapiens, UniProt Q8IXJ6); assay: Inhibition of recombinant human GST-tagged SIRT2 overexpressed in Escherichia coli DH5alpha assessed as deacetylation activity using [3H]-MPSDKTIGG as substrate measured after overnight incubation by liquid scintillation counting method
T2 sequence (Q8IXJ6 whole entry): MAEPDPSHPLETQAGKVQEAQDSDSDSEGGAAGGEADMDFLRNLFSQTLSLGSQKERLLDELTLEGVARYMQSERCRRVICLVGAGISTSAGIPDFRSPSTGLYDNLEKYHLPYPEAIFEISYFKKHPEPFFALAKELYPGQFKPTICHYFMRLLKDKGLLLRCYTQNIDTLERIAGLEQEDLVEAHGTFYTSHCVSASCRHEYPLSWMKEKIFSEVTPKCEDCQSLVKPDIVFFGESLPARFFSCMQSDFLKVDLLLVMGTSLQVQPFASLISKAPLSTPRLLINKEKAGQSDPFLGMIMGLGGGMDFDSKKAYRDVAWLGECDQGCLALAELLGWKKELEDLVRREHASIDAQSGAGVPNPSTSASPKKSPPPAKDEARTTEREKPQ

[4] = target: T1, NAD-dependent protein deacetylase sirtuin-1; assay: Inhibition of recombinant human SIRT1 (193 to 747 residues) expressed in Escherichia coli BL21 (DE3) using AMC-labeled p53-derived acetylated lysine as substrate in presence of NAD+ by HTS assay
[5] = target: T3, NAD-dependent protein deacetylase sirtuin-1 (Homo sapiens) (UniProt Q96EB6); assay: Activation of recombinant human SIRT1 using TPE-GK(Ac)YDD as substrate at 50 uM by fluorescence assay relative to control
T3 sequence (whole entry): T1 sequence (Q96EB6 whole entry)

[6] = Cytotoxicity in human LNCAP cells assessed as growth inhibition measured after 48 hrs by MTT assay; type: functional
[7] = Cytotoxicity in HEK293 cells assessed as growth inhibition measured after 48 hrs by MTT assay; type: toxicity, cell-based; settings: human
[8] = Cytotoxicity in human MDA-MB-231 cells assessed as growth inhibition measured after 48 hrs by MTT assay; type: functional; settings: MDA-MB-231, 48 h
[9] = Cytotoxicity in human Caco2 cells assessed as growth inhibition measured after 48 hrs by MTT assay; type: functional; settings: Caco-2, 48 h
[10] = target: T1, NAD-dependent protein deacetylase sirtuin-1; assay: Inhibition of human SIRT1 assessed as deacetylation activity preincubated with protein followed by addition of AMC-tagged Arg-His-Lys-Lys(Ac) (379 to 382 residues) as substrate measured after 45 mins in presence of NAD+ by fluorescence assay
[11] = Cytotoxicity in human U937 cells assessed as growth inhibition measured after 48 hrs by MTT assay; type: functional; settings: U-937, 48 h
[12] = target: T1, NAD-dependent protein deacetylase sirtuin-1; assay: Activation of recombinant human SIRT1 assessed as increase in deacetylation of Fluor de Lys-SIRT1-specific substrate after 2 hrs by HTS assay
[13] = target: T1, NAD-dependent protein deacetylase sirtuin-1; assay: Inhibition of SIRT1 (unknown origin) using acetylated lysine as substrate by Fluor de Lys assay
[14] = target: T2, NAD-dependent protein deacetylase sirtuin-2; assay: Inhibition of human N-terminal 6His-tagged SIRT2 assessed as inhibition of deacetylase activity using ZMAL as substrate measured after 4 hrs by Fluor de Lys assay
[15] = target: T1, NAD-dependent protein deacetylase sirtuin-1; assay: Inhibition of recombinant human SIRT1 assessed as inhibition of deacetylase activity using ZMAL as substrate measured after 4 hrs by Fluor de Lys assay
[16] = Cytotoxicity against human prostate cancer cells; type: functional; settings: Cancer cell lines
[17] = Cytotoxicity against human lung cancer cells; type: functional; settings: Cancer cell lines
[18] = Cytotoxicity against human colon cancer cells; type: functional; settings: Cancer cell lines
[19] = Cytotoxicity against human breast cancer cells; type: functional; settings: Cancer cell lines
[20] = Cytotoxicity against human kidney cancer cells; type: functional; settings: Cancer cell lines
[21] = Cytotoxicity against human leukemia cells; type: functional; settings: Leukemia cell
[22] = Oral bioavailability in rat at 56 or 168 mg/kg/day administered through gavage for 14 consecutive days by HPLC analysis; type: ADME, organism-based; settings: in vivo
[23] = target: NAD-dependent histone deacetylase SIR2 (Saccharomyces cerevisiae S288c, UniProt P06700); assay: Non-competitive inhibition of recombinant yeast glutathione-S-transferase-tagged SIRT2 using acetylated histone as substrate measured after 30 mins by fluorimetric analysis
Sequence of NAD-dependent histone deacetylase SIR2 (P06700 whole entry): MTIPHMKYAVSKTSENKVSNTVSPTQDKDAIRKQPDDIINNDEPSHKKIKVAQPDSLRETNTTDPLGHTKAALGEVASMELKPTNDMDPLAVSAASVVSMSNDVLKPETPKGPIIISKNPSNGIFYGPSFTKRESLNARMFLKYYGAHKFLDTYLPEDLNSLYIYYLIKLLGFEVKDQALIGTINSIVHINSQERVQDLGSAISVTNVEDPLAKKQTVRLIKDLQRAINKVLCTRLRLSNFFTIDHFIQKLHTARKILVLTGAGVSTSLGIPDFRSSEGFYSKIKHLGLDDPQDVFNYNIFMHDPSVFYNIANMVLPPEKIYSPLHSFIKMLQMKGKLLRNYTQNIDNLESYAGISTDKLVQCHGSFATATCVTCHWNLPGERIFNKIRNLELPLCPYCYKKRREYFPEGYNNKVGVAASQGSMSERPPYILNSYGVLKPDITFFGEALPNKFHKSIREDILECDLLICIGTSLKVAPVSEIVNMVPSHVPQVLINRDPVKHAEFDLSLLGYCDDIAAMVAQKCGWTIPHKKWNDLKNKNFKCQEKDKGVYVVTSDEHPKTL

Structure (SMILES): CC(C)=CCC[C@]1(C)[C@@H](CC=C(C)C)C[C@]2(CC=C(C)C)C(=O)C(CC=C(C)C)=C(O)[C@@]1(C(=O)C(C)C)C2=O
pIC50 [2]: 4.82 | pIC50 [3]: 4.55

Structure (SMILES): Fc1cccc(-n2cc(CSC(=S)N3CCN(C(=S)SCc4cn(-c5ccccc5F)nn4)CC3)nn2)c1
pIC50 [4]: 5.97

Structure (SMILES): N#CC1=C(N)NC(SCC(=O)c2ccc(O)c(O)c2)=C(C#N)C1=C1C=CC(=O)C=C1
GI50 [6]: < 1 µM | GI50 at 48 h [7]: < 1 µM | GI50 [8]: < 1 µM | GI50 [9]: < 1 µM | pIC50 [10]: 4.79 | GI50 [11]: < 1 µM

Structure (SMILES): O=C(O)c1cccc(NC(=O)c2ccc(N3C(=O)c4ccc(C(=O)Nc5cccc(C(=O)O)c5)cc4C3=O)cc2)c1
GI50 [6]: < 1 µM | GI50 at 48 h [7]: < 1 µM | GI50 [8]: < 1 µM | GI50 [9]: < 1 µM | GI50 [11]: < 1 µM

Structure (SMILES): COCCCn1c(N)c(C(=O)NC2CCCC2)c2nc3ccccc3nc21
pEC50 [12]: > 6.00

Structure (SMILES): NC(=O)c1ccccc1Oc1ccccc1
pIC50 [13]: < 4.00

Structure (SMILES): O=C1CC(=S)NC(=O)/C1=C/c1cc2ccccc2[nH]1
pIC50 [14]: > 4.69 | pIC50 [15]: 5.23

Structure (SMILES): COc1ccc2c3c(c4cc(OC)c(OC)cc4c2c1)CN1CCCC[C@@H]1C3
GI50 [16]: 0.0002 to 0.1 µg/mL (≈ 0.00053 to 0.265 µM) | GI50 [17]: 0.0002 to 0.1 µg/mL (≈ 0.00053 to 0.265 µM) | GI50 [18]: 0.0002 to 0.1 µg/mL (≈ 0.00053 to 0.265 µM) | GI50 [19]: 0.0002 to 0.1 µg/mL (≈ 0.00053 to 0.265 µM) | GI50 [20]: 0.0002 to 0.1 µg/mL (≈ 0.00053 to 0.265 µM) | GI50 [21]: 0.0002 to 0.1 µg/mL (≈ 0.00053 to 0.265 µM)

Structure (SMILES): CC(C)=CCC[C@]1(C)[C@@H](CC=C(C)C)C[C@@]2(CC=C(C)C)C(=O)[C@]1(C(=O)C(C)C)C(=O)C(CC=C(C)C)=C2OCC(=O)O
pIC50 [2]: 5.15 | pIC50 [3]: 4.68

Structure (SMILES): NC(=O)c1cccnc1 [NIACINAMIDE]
pIC50 [23]: > 4.30

Further lines, results first:

pIC50 [1]: 6.83
Structure (SMILES): CN(C)/C=N/C(=O)C1CCCc2c1[nH]c1ccc(Cl)cc21 (centres undefined)

pIC50 [2]: 5.05 | pIC50 [3]: 4.66
Structure (SMILES): CC(C)=CCC/C(C)=C/C[C@@H]1C[C@]2(CC=C(C)C)C(=O)[C@@](CC=C(C)C)(C(=O)C(Cc3ccc(O)c(O)c3)=C2O)[C@@]1(C)CCC=C(C)C

pIC50 [1]: 5.55
Structure (SMILES): COc1ccc2[nH]c3c(c2c1)CCCC3C(=O)O (centres undefined)

Activity [5]: 28%
Structure (SMILES): COc1cc2c(c(OC)c1OC)-c1c(cc(OC)c(OC)c1OC)C[C@H](C)[C@H](C)C2

bioavailability [22]: 80%
Structure (SMILES): COc1cc(/C=C/c2ccc(O)cc2)cc(OC)c1 [PTEROSTILBENE]

pEC50 [12]: > 6.00
Structure (SMILES): Nc1c(S(=O)(=O)c2ccccc2)c2nc3ccccc3nc2n1-c1ccc(F)cc1
